Columns and labels:
PI3Kδ (p110δ/p85α) = biological target: T1, PI3Kδ (p110δ/p85α) (Homo sapiens, UniProt O00329); assay: PI3Kδ scintillation proximity assay; type: biochemical; conditions: 20 μM ATP, 4 nM PI3Kδ
T1 construct: purchased Millipore (Bedford, Mass.)
Outline: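 p110δ/p85α (4 nM) phosphorylated 20 μM PIP2 with 20 μM ATP plus [γ-33P]ATP in 20 mM MOPS pH 6.7, 10 mM MgCl2, 5 mM DTT, 0.03% CHAPS, 0.5% DMSO, 210 min at room temperature. EDTA quench, WGA SPA bead capture, scintillation counting; IC50 from log-concentration fit.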

[1] = test system: Pfeiffer cell line (diffuse large B cell lymphoma); assay: Pfeiffer cell proliferation assay; type: cell-based; conditions: Homo sapiens, Pfeiffer, Pfeiffer cells, 3-4 days plus 12 hours [3H]-thymidine incorporation
Outline: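 Pfeiffer DLBCL cells grown in RPMI/10% FBS at 2×10^3 cells/well in ultra-low-binding plates with a range of compound concentrations for 3-4 days. [3H]-thymidine (1 μCi/well) was then added for 12 h more. Incorporation was read by filtration and scintillation counting.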

T1 sequence (O00329 whole entry, species assumed): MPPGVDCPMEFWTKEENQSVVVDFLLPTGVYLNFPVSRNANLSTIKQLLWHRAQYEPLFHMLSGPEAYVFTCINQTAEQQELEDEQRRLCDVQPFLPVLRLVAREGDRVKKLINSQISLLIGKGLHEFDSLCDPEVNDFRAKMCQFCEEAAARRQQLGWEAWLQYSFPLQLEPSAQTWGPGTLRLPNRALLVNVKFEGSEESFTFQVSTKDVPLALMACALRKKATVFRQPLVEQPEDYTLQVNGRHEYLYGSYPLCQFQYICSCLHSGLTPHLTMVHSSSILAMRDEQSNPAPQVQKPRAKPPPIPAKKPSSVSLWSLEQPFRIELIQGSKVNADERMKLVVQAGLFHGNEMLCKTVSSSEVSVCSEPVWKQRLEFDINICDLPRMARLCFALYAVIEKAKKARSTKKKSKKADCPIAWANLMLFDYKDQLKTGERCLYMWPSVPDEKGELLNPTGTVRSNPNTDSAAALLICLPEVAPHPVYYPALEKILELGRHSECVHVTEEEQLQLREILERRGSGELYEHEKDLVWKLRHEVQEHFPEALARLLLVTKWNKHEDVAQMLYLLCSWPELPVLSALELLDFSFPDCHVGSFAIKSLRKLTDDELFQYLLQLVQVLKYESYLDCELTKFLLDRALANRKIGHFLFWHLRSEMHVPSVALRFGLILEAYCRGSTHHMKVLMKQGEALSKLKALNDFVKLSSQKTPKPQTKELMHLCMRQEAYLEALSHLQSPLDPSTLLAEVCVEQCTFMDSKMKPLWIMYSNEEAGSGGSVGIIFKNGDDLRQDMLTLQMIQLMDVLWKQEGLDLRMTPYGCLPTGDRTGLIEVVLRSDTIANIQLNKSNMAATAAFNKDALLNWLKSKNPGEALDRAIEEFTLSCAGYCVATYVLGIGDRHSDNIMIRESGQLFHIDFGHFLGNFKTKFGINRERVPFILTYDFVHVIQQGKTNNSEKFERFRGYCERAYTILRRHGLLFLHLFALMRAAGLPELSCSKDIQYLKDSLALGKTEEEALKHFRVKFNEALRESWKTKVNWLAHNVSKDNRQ
T1 sequence (P27986 whole entry partner, species assumed): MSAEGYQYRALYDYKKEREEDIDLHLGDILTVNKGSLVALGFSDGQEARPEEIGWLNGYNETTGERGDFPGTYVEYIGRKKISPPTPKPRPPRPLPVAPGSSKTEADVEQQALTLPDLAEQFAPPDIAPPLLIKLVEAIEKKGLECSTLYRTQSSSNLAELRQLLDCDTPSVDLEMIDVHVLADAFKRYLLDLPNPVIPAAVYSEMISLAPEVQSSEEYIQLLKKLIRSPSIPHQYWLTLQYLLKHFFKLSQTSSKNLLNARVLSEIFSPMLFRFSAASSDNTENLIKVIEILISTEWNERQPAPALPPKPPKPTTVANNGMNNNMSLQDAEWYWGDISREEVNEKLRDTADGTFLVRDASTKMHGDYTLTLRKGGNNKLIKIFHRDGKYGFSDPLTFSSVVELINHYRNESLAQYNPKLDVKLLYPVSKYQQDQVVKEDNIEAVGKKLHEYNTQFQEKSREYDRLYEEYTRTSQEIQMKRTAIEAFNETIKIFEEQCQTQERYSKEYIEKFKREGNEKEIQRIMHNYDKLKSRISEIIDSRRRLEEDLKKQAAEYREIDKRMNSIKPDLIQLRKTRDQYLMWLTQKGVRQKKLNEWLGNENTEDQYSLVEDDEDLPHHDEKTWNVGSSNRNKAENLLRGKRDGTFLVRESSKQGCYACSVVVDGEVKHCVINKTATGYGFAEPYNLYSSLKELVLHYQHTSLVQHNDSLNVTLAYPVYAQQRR

## COc1c(C(C)Nc2ncnc3[nH]cnc23)cc(Cl)c(Cl)c1C1CN(Cc2cscn2)C1 (centres unmarked) [Example 204, N-(1-{4,5-Dichloro-2-methoxy-3-[1-(1,3-thiazol-4-ylmethyl)azetidin-3-yl]phenyl}ethyl)-9H-purin-6-amine]
PI3Kδ (p110δ/p85α)
  IC50: < 50 nM
[1]
  IC50: < 100 nM

Source: patent publication US9815839B2, “N-(1-(substituted-phenyl)ethyl)-9H-purin-6-amines as PI3K inhibitors” (Incyte Corporation, priority 2010, dated 2017)
